Assay results reported in patent US6387900B1, “3(5)-ureido-pyrazole derivatives process for their preparation and their use as antitumor agents” (Pharmacia & Upjohn S.p.A., priority 1999, dated 2002).

melting point	Structure (SMILES)
177 to 179 °C	O=C(NCc1ccc(Cl)cc1Cl)Nc1cc(C2CC2)n[nH]1 [Example 2, N-(3-cyclopropyl-1H-pyrazol-5-yl)-N′-(2,4-dichlorobenzyl)urea]
162 to 164 °C	O=C(Nc1ccccc1)Nc1cc(C2CC2)n[nH]1 [Example 1, N-(3-cyclopropyl-1H-pyrazol-5-yl)-N′-phenylurea]
